In US6534496B1, “Thermogenic composition and benzazepine thermogenics” (Takeda Chemical Industries, Inc., priority 1997, dated 2003):
Where a name gives a salt, the structure may show the parent alone.

melting point | SMILES
226 to 229 °C (dec.) | O=C(CCCC1CCN(Cc2ccccc2Cl)CC1)c1ccc2c(c1)CCN(Cc1ccccc1)CC2 (as salt: hydrochloride) [Example 178, 4-[1-[(2-Chlorophenyl)methyl]-4-piperidinyl]-1-[3-(phenylmethyl)-2,3,4,5-tetrahydro-1H-3-benzazepin-7-yl]-1-butanone Dihydrochloride]
164 to 167 °C | Cc1ccc(CN2CCC(CCCC(=O)c3ccc4c(c3)CCN(Cc3ccccc3[N+](=O)[O-])CC4)CC2)cc1 (as salt: hydrochloride) [Example 198, 4-[1-[(4-Methylphenyl)methyl]-4-piperidinyl]-1-[3-[(2-nitrophenyl)methyl]-2,3,4,5-tetrahydro-1H-3-benzazepin-7-yl]-1-butanone Dihydrochloride]
213 to 216 °C (dec.) | Cc1ccccc1CN1CCC(CCCC(=O)c2ccc3c(c2)CCNCC3)CC1 (as salt: hydrochloride) [Example 236, 4-[1-[(2-Methylphenyl)methyl]-4-piperidinyl]-1-(2,3,4,5-tetrahydro-1H-3-benzazepin-7-yl)-1-butanone Dihydrochloride]
211 to 213 °C | CCN(CC)CCN1CCc2ccc(C(=O)CCCC3CCN(Cc4ccccc4C)CC3)cc2CC1 (as salt: hydrochloride) [Example 244, 1-[3-(2-Diethyaminoethyl)-2,3,4,5-tetrahydro-1H-3-benzazepin-7-yl]-4-[1-[(2-methylphenyl)methyl]-4-piperidinyl]-1-butanone Trihydrochloride]
201 to 220 °C (dec.) | Cc1ccccc1CN1CCc2ccc(C(=O)CCCC3CCN(Cc4ccccc4C(N)=O)CC3)cc2CC1 (as salt: hydrochloride) [Example 254, 2-[[4-[4-[3-[(2-Methylphenyl)methyl]-2,3,4,5-tetrahydro-1H-3-benzazepin-7-yl]-4-oxobutyl]-1-piperidinyl]methyl]benzamide Dihydrochloride]
192 to 203 °C (dec.) | Cc1ccccc1CN1CCc2ccc(C(=O)CCCC3CCNCC3)cc2CC1 (as salt: hydrochloride) [Example 255, 1-[3-(2-Methylphenyl)methyl]-2,3,4,5-tetrahydro-1H-3-benzazepin-7-yl]-4-(4-piperidinyl)-1-butanone Dihydrochloride]
186 to 193 °C (dec.) | Cc1ccccc1CN1CCc2ccc(C(=O)CCCC3CCN(Cc4ccccc4C(=O)N4CCN(C)CC4)CC3)cc2CC1 (as salt: hydrochloride) [Example 313, 4-[1-[[2-[(4-methyl-1-pipiperazinyl)carbonyl]phenyl]methyl]-4-piperidinyl]-1-[3[(2-methylphenyl)methyl]-2,3,4,5-tetrahydro-1H-3-benzazepin-7-yl]-1-butanone Trihydrochloride]
155 to 164 °C (dec.) | Nc1ccccc1CN1CCc2ccc(C(=O)CCCC3CCN(Cc4ccccc4Cl)CC3)cc2CC1 (as salt: hydrochloride) [Example 316, 1-[3-[(2-Aminophenyl)methyl]-2,3,4,5-tetrahydro-1H-3-benzazepin-7-yl]-4-[1-[(2-chlorophenyl)methyl]-4-piperidinyl]-1-butanone Trihydrochloride]
94 to 95 °C | CC(=O)N1CCC(CCCC(=O)c2ccc3c(c2)CCN(Cc2ccccc2C)CC3)CC1 [Example 125, 4-(1-Acetyl-4-piperidinyl)-1-[3-[(2-methylphenyl)methyl]-2,3,4,5-tetrahydro-1H-3-benzazepin-7-yl]-1-butanone]
129 to 132 °C | Cc1ccccc1CN1CCc2ccc(C(=O)CCCC3CCN(Cc4ccccc4C(=O)O)CC3)cc2CC1 [Example 253, 2-[[4-[4-[3-[(2-Methylphenyl)methyl]-2,3,4,5-tetrahydro-1H-3-benzazepin-,7-yl]-4-oxobutyl]-1-piperidinyl]methyl)benzoic Acid]
150 to 152 °C | Cc1ccccc1CN1CCc2ccc(C(=O)CCCC3CCN(Cc4cccc(C(=N)N)c4)CC3)cc2CC1 [Example 260]
103 to 104 °C | N#Cc1ccccc1CN1CCc2ccc(C(=O)CCCC3CCN(Cc4ccccc4Cl)CC3)cc2CC1 [Example 265, 4-[1-[(2-Chlorophenyl)methyl]-4-piperidinyl]-1-[3-[(2-cyanophenyl)methyl]-2,3 4,5-tetrahydro-1H-3-benzazepin-7-yl]-1-butanone]

The remaining lines, values behind:

SMILES | melting point
CCOC(=O)C(C)(C)c1cccc(CN2CCC(CCCC(=O)c3ccc4c(c3)CCN(Cc3ccccc3)CC4)CC2)c1 (as salt: hydrochloride) [Example 153, Ethyl 2-methyl-2-[3-[[4-[4-[3-(phenylmethyl)-2,3,4,5-tetrahydro-1H-3-benzazepin-7-yl]-4-oxobutyl]-1-piperidinyl]methyl]phenyl]propionate Dihydrochloride] | 146 to 148 °C
O=C(CCCC1CCN(Cc2cccc([N+](=O)[O-])c2)CC1)c1ccc2c(c1)CCN(Cc1ccccc1)CC2 (as salt: hydrochloride) [Example 154, 4-[1-[(3-Nitrophenyl)methyl]-4-piperidinyl-1-(3-(phenylmethyl)-2,3,4,5-tetrahydro-1H-3-benzazepin-7-yl]-1-butanone Dihydrochloride] | 239 to 244 °C (dec.)
COc1cccc(CN2CCC(CCCC(=O)c3ccc4c(c3)CCN(Cc3ccccc3)CC4)CC2)c1 (as salt: hydrochloride) [Example 156, 4-[1-[(3-Methoxyphenyl)methyl]-4-piperidinyl]-1-[3-(phenylmethyl)-2,3,4,5-tetrahydro-1H-3-benzazepin-7-yl]-1-butanone Dihydrochloride] | 215 to 218 °C (dec.)
CC(=O)Nc1cccc(CN2CCC(CCCC(=O)c3ccc4c(c3)CCN(Cc3ccccc3)CC4)CC2)c1 (as salt: hydrochloride) [Example 179, N-[3-[[4-[4-[3-(Phenylmethyl)-2,3,4,5-tetrahydro-1H-3-benzazepin-7-yl]-4-oxobutyl]-1-piperidinyl]methyl]phenyl]acetamide Dihydrochloride] | 179 to 187 °C
Cc1ccc(CN2CCc3ccc(C(=O)CCCC4CCN(Cc5ccc(F)cc5)CC4)cc3CC2)cc1 (as salt: hydrochloride) [Example 192, 4-[1-[(4-Fluorophenyl)methyl]-4-piperidinyl]-1-[3-[(4-methylphenyl)methyl]-2,3,4,5-tetrahydro-1H-3-benzazepin-7-yl]-1-butanone Dihydrochloride] | 225 to 228 °C
Cc1ccc(CN2CCC(CCCC(=O)c3ccc4c(c3)CCN(Cc3cccc(Cl)c3)CC4)CC2)cc1 (as salt: hydrochloride) [Example 202, 1-[3-[(3-Chlorophenyl)methyl]-2,3,4,5-tetprahydro-1H-3-benzazepin-7-yl]-4-[1-[(4-methylphenyl)methyl]-4-piperidinyl]-1-butanone Dihydrochloride] | 195 to 198 °C
O=C(CCCCC1CCN(Cc2ccccc2)CC1)c1ccc2c(c1)CCN(Cc1ccccc1)CC2 (as salt: hydrochloride) [Example 209, 5-[1-(Phenylmethyl)-4-piperidinyl]-1-[3-(phenylmethyl)-2,3,4,5-tetrahydro-1H-3-benzazepin-7-yl]-1-pentanone Dihydrochloride] | 208 to 210 °C
Cc1ccccc1CN1CCc2ccc(C(=O)CCCC3CCN(Cc4ccccc4C(=O)N4CCOCC4)CC3)cc2CC1 (as salt: hydrochloride) [Example 314, 1-[3-[(2-Methylphenyl)methyl]-2,3,4,5-tetrahydro-1H-3-benzazepin-7-yl]-4-[1-[[2-(morpholinocarbonyl)phenyl]methyl]-4-piperidinyl]-1-butanone Dihydrochloride] | 168 to 172 °C
CC(=O)Nc1ccccc1CN1CCc2ccc(C(=O)CCCC3CCN(Cc4ccccc4Cl)CC3)cc2CC1 (as salt: hydrochloride) [Example 315, N-[2-[[7-[4-[1-[(2-chlorophenyl)methyl]-4-piperidinyl]butanoyl]-2,3,4,5-tetrahydro-1H-3-benzazepin-3-yl]methyl]phenyl]acetamide Dihydrochloride] | 138 to 144 °C
O=C(O)c1cccc(CN2CCC(CCCC(=O)c3ccc4c(c3)CCN(Cc3ccccc3)CC4)CC2)c1 (as salt: salt) [Example 158, 3-[[4-[4-[3-(Phenylmethyl)-2,3,4,5-tetrahydro-1H-benzazepin-7-yl]-4-oxobutyl)-1-piperidinyl]methyl]benzoic acid triethylamine Salt] | 150 to 158 °C
O=C(CCC1CCNCC1)c1ccc2c(c1)CCN(Cc1ccccc1)CC2 [Example 24, 1-[3-(phenylmethyl)-2,3,4,5-tetrahydro-1H-3-benzazepin-7-yl]-3-(4-piperidinyl)-1-propanone] | 134 to 137 °C
CC(=O)N1CCC(CCC(=O)c2ccc3c(c2)CCN3c2ccncc2)CC1 [Example 61, 3-(1-Acetyl-4-piperidinyl)-1-[1-(4-pyridyl)-2,3-dihydroindol-5-yl]-1-propanone] | 157 to 158 °C
CC(=O)N1CCC(CCC(=O)c2cc3c4c(c2)CCN4C(=O)CC3)CC1 [Example 66, 8-[3-(1-Acetyl-4-piperidinyl)-1-oxopropyl]-1,2,5,6-tetrahydro-4H-pyrrolo[3,2,1-ij]quinolin-4-one] | 160 to 161 °C
CC(=O)N1CCC(CCC(=O)c2ccc3c4c2CCCC4CN3C(C)=O)CC1 (centres unmarked) [Example 67, 3-(1-Acetyl-4-piperidinyl)-1-(1-acetyl-1,2,2a,3,4,5-hexahydrobenz[cd]indol-6-yl)-1-propanone] | 130 to 132 °C
CC(=O)N1CCC(CCC(=O)c2ccc3c(c2)CNc2ccccc2CC3)CC1 [Example 69, 3-(1-Acetyl-4-piperidinyl)-1-(5,6,11,12-tetrahydrodibenz[bf]azocin-8-yl)-1-propanone] | 153 to 155 °C
O=C(CCCC1CCN(Cc2cccc(O)c2)CC1)c1ccc2c(c1)CCN(Cc1ccccc1)CC2 [Example 157, 4-[1-[(3-Hydroxyphenyl)methyl]-4-piperidinyl]-1-[3-(phenylmethyl)-2,3,4,5-tetrahydro-1H-3-benzazepin-7-yl]-1-butanone] | 88 to 94 °C
O=C(O)c1ccc(CN2CCC(CCCC(=O)c3ccc4c(c3)CCN(Cc3ccccc3)CC4)CC2)cc1 [Example 183, 4-[[4-[4-[3-(Phenylmethyl)-2,3,4,5-tetrahydro-1H-3-benzazepin-7-yl]-4-oxobutyl]-1-piperidinyl]methyl]benzoic Acid] | 165 to 176 °C
